{"source": "patent US7910560B2", "about": "“Method for increasing breast meat yield in poultry” (Arkion Life Sciences LLC, priority 2003, dated 2011)", "key": {"[1]": {"settings": "cited from earlier work"}, "commercial broilers [2]": {"system": "commercial broilers", "test": "Natamycin in feeds formulated for portion-control processed broilers (Example 1)", "format": "in vivo, Gallus domesticus", "text": "(§1) Mixed feed was stored in 50 lb capacity feed sacks. Feed was stored by treatment and treatment diets were further identified with color-codes. After each diet had been mixed, three composite samples (approximately 1 lb each) were collected. The amount of feed mixed for each treatment was as follows: [table] Normal, healthy day-old chicks were obtained from a commercial hatchery. Birds were transported from the hatchery location to Denver, Colo. via commercial air freight. Ground transportation was used to transport chicks from Denver to Wellington, Colo. The study started with 1200 commercial broilers of the species Gallus domesticus, the birds being placed into pens (30 male/30 female per pen). Treatments were assigned to pens using randomized block design. The research facility was divided into 10 blocks of 2 pens each. Birds were assigned randomly according to CQR SOPs. [table] Feed was provided ad libitum throughout the study via two hanging 17-inch diameter tube feeders per pen. A chick feeder tray was also placed in each pen for approximately the first 6 days. All birds were placed on their respective treatment diets upon receipt (approx. 0 days of age). All feed added and removed from pens was weighed and recorded. All experimental diet changes were conducted at the same time for both treatment groups."}, "commercial broilers [3]": {"system": "commercial broilers", "test": "Natamycin in feeds formulated for growing large broilers (Example 2)", "format": "in vivo, Gallus domesticus", "text": "as §1, with “1400” for “1200”, “domesticus.” for “domesticus, the birds being placed into pens (30 male/30 female per pen).”, “SOPs.” for “SOPs. [table]”"}, "commercial broilers [4]": {"system": "commercial broilers", "test": "Natamycin feed additive in diets manufactured using a gap extender (Example 3)", "format": "in vivo, Gallus domesticus", "text": "as §1, with “The natamycin test article” for “Mixed feed”, “mixed into the treatment” for “stored in 50 lb capacity feed sacks. Feed was stored”, “the ConAgra Poultry Company. Once” for “treatment and treatment diets were further identified with color-codes. After”, “1140” for “1200”, “domesticus.” for “domesticus, the birds being placed into pens (30 male/30 female per pen).”"}, "[5]": {"settings": "49 days, 1 lbs/ton natamycin in feed ad libitum"}}, "note": "Marks after values point to notes of the source that are not given here.", "data": [{"smiles": "C[C@@H]1C/C=C/C=C/C=C/C=C/[C@H](O[C@@H]2O[C@H](C)[C@@H](O)[C@H](N)[C@@H]2O)C[C@@H]2O[C@](O)(C[C@@H](O)C[C@H]3O[C@@H]3/C=C/C(=O)O1)C[C@H](O)[C@H]2C(=O)O", "note": "[Natamycin, natamycin]", "values": [{"measurement": "Solubility in water", "setting": "[1]", "value": "0.005-0.010 weight/weight percent"}, {"measurement": "Breast Weight, Treatment Total", "setting": "commercial broilers [2]; 43 days, 1 lbs/ton natamycin in feed ad libitum, 230 birds", "value": 77.485}, {"measurement": "% Breast, Treatment Average", "setting": "commercial broilers [2]; 43 days, 1 lbs/ton natamycin in feed ad libitum, statistically extremely significant", "value": "22.83** %"}, {"measurement": "Breast Weight, Treatment Average", "setting": "commercial broilers [2]; 43 days, 1 lbs/ton natamycin in feed ad libitum, statistically very significant", "value": "0.337*"}, {"measurement": "Breast weight and breast yield versus control", "setting": "commercial broilers [2]; over a 43 day period, statistically significant", "value": "increased breast weight and breast yield"}, {"measurement": "Breast Weight, Treatment Total", "setting": "commercial broilers [3]; 61 days, 1 lbs/ton natamycin in feed ad libitum, 230 birds printed", "value": 141.840}, {"measurement": "% Breast, Treatment Average", "setting": "commercial broilers [3]; 61 days, 1 lbs/ton natamycin in feed ad libitum, statistically extremely significant", "value": "21.72** %"}, {"measurement": "Breast Weight, Treatment Average", "setting": "commercial broilers [3]; 61 days, 1 lbs/ton natamycin in feed ad libitum, statistics not calculated", "value": 0.505}, {"measurement": "Breast weight and breast yield versus control", "setting": "commercial broilers [3]; over a 61 day period, breast yield increase statistically significant", "value": "increased breast weight and breast yield"}, {"measurement": "Breast Weight, Bird Average", "setting": "commercial broilers [4]; [5]", "value": 0.465}, {"measurement": "Breast Weight, Pen Average", "setting": "commercial broilers [4]; [5]", "value": 8.315}, {"measurement": "% Breast, Pen Average", "setting": "commercial broilers [4]; 49 days, 1 lbs/ton natamycin in feed ad libitum, statistically significant", "value": "23.31* %"}, {"measurement": "Breast weight and breast yield versus control", "setting": "commercial broilers [4]; over a 49 day period, breast yield increase statistically significant", "value": "increased breast weight and breast yield"}]}]}
